Source: patent US8586612B2, “Piperidinesulfonylureas and -thioureas, their preparation, their use and pharmaceutical compositions comprising them” (Sanofi-Aventis Deutschland GmbH, priority 2004, dated 2013)

Legend:
[1] = target: hSUR1/hKir6.2 (Homo sapiens, UniProt Q09428); experiment: Effect on membrane potential of hSUR1/hKir6.2-transfected CHO cells (hypoglycemic effect), DiBAC4 fluorescence, FLIPR; format: cell-based; conditions: CHO cells activated with diaxozide, averages of at least 4 experiments
Chain of hSUR1/hKir6.2 (Q09428 whole entry): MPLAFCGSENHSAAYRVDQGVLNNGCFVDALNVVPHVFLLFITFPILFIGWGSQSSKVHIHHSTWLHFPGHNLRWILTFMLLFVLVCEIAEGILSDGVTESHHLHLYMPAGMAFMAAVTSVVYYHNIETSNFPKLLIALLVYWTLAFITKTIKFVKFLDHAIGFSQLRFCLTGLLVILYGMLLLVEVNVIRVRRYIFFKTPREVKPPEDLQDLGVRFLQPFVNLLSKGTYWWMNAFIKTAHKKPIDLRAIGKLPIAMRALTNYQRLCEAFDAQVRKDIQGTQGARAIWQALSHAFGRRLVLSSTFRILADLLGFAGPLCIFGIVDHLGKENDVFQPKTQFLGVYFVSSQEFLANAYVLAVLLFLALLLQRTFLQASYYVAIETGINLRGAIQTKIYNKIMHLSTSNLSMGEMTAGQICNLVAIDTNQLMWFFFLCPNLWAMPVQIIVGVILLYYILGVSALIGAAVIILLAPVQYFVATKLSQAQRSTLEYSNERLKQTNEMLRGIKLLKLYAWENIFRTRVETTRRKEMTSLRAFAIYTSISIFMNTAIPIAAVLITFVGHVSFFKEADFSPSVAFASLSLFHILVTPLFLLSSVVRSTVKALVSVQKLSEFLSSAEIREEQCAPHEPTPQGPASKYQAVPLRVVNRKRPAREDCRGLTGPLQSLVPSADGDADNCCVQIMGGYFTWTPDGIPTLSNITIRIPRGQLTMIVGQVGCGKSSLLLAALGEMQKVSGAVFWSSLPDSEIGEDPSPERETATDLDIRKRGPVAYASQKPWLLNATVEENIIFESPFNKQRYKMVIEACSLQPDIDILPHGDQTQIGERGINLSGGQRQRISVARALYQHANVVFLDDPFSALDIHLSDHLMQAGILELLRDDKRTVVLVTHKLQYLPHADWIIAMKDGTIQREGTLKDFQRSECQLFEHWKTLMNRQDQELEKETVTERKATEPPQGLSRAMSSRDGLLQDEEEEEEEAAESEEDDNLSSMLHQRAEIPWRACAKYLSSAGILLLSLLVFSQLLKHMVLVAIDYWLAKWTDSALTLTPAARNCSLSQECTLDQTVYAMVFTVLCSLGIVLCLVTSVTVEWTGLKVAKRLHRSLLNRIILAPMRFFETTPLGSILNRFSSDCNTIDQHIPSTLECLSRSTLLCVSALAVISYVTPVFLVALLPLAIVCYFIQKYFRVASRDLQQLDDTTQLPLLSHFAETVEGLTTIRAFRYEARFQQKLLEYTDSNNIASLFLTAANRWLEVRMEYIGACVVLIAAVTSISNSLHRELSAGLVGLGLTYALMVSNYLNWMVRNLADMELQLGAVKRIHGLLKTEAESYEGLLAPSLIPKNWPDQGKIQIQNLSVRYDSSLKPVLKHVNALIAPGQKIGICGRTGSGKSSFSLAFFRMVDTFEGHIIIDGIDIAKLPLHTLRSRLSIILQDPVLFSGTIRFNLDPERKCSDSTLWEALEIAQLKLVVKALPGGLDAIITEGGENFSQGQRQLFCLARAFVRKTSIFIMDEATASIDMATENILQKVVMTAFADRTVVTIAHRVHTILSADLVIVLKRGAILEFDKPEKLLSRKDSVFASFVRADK
Chain of hSUR1/hKir6.2 (Q14654 whole entry partner): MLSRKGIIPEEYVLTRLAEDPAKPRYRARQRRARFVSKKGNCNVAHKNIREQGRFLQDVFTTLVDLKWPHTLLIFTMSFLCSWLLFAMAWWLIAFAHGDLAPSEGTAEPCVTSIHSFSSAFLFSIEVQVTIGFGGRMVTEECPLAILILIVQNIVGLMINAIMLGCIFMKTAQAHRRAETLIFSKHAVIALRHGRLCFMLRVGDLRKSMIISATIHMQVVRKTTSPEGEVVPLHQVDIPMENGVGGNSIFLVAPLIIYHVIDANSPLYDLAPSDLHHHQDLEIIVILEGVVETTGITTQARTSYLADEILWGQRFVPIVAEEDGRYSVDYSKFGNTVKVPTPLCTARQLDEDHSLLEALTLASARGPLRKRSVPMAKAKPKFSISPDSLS
Text: 2) Effect on hSUR1/hKir6.2-Transfected CHO Cells (Hypoglycemic Effect)
The target organ of these compounds is the β cell of the pancreas, where they block ATP-sensitive potassium channels and bring about, through influencing the electric potential of the cell membrane, a release of the blood sugar-lowering hormone insulin. […] The extent of this depolarization of the cell membrane caused by the compounds according to the invention was investigated on CHO cells which were transfected with the cloned components of human pancreatic ATP-sensitive potassium channels, hSUR1 and hKir6.2, and were activated by pretreatment with diaxozide, an opener of ATP-sensitive potassium channels. The strength of action of a compound on the membrane potential of these transfected and activated CHO cells is a measure of the blood sugar-lowering potential of this compound.
On the day of the measurement, the microtiter plates were washed three times with PBS (physiological buffer solution). 90 μl remained in each well at the last washing step. The cells were then loaded with the fluorescent dye DiBAC4 (Molecular Probes, Portland, Oreg., USA) by adding 90 μl of a 10 micromolar solution of DIBAC4 in PBS and 90 μl of a 400-micromolar solution of diaxozide in PBS to each well. After an incubation time of 30 minutes at 37° C., the microtiter plates were then transferred into a Fluorescent Microtiter Plate Reader (FLIPR; Molecular Devices, Sunnyvale, Calif., USA). The cells were excited using an argon laser (Innova 90; Coherent, Santa Clara, Calif., USA) at a wavelength of 488 nm, and the fluorescence emission was measured using a CCD camera. Measurement of the membrane potential began after 4 minutes by adding 20 μl of a solution of the test substance or of the control solution to each well, measuring the resulting fluorescence emission every 20 seconds over a period of 20 minutes. The data listed below are averages of at least 4 experiments.

[2] = tested on: guinea pig papillary muscle; experiment: Effect on the action potential duration (APD90) on the guinea pig papillary muscle under hypoxia; conditions: test substance 2 μmol/l in bath, 60 minutes after addition; 100% = APD90 under hypoxia before substance, 0% = normoxic APD90
Text: 1) Effect on the Action Potential Duration on the Guinea Pig Papillary Muscle
ATP deficiency states like those observed in the cardiomyocyte during an ischemia lead to a shortening of the action potential duration. They are regarded as one of the causes of so-called reentry arrhythmias, which can cause sudden cardiac death. The opening of ATP-sensitive potassium channels through the lowering of the ATP level is regarded as the cause thereof (ATP=adenosine triphosphate). For measuring the action potential on the guinea pig papillary muscle, a standard microelectrode technique was employed.
Guinea pigs of both sexes were sacrificed by a blow to the head, the heart was removed, and the papillary muscles were dissected out and suspended in an organ bath. The organ bath was rinsed with Ringer's solution (136 mmol/l NaCl, 3.3 mmol/l KCl, 2.5 mmol/l CaCl2, 1.2 mmol/l KH2PO4, 1.1 mmol/l MgSO4, 5.0 mmol/l glucose, 10.0 mmol/l 1-(2-hydroxyethyl)piperazine-4-(2-ethanesulfonic acid) (HEPES), pH adjusted to 7.4 with NaOH) and aerated with 100% oxygen at a temperature of 37° C. The muscle was stimulated via an electrode with square-wave pulses of 1 V and 1 ms duration and a frequency of 1 Hz. The action potential was derived through a glass microelectrode which is inserted intracellularly and filled with 3 mol/l KCl solution, and was recorded. The action potential was amplified using an amplifier from Hugo Sachs (March-Hugstetten, Germany) and stored and evaluated by a computer. The duration of the action potential was determined at a degree of repolarization of 90% (APD90). The shortening of the action potential was induced after an equilibration time of 30 minutes by rinsing the papillary muscle with a hypoxic solution. For this, the glucose was removed, the HEPES buffer replaced by PIPES buffer (piperazine-1,4-bis(2-ethanesulfonic acid)), the pH adjusted to 6.5 and aeration was carried out with 100% nitrogen. This led after a period of 60 minutes to a marked shortening of the APD90. After this time, the test substance was added in the form of a stock solution in propanediol, so that the concentration of the substance in the bath solution was 2 μmol/l. After a further 60 minutes, the re-prolongation of the action potential again recorded. The table below indicates the overall shortening, resulting after hypoxia and addition of test substance, of the APD90 value in percent, i.e. the percentage shortening of the APD90 still remaining after addition of the test substance under hypoxia, where 100% corresponds to the APD90 value under hypoxic conditions before addition of the test substance and 0% corresponds to the APD90 value under normoxic conditions at the start of the experiment.

[3] = tested on: guinea pig heart; experiment: Effect on coronary flow under hypoxic conditions in the isolated perfused Langendorff guinea pig heart; conditions: 1 μM in perfusate, added 10 minutes before hypoxia; averages of 3 hearts
Text: 3) Effect on Coronary Flow Under Hypoxic Conditions in the Guinea Pig Heart
It is known that an oxygen deficiency in coronary vessels leads to a reflectory dilatation of the vessels in order to compensate the oxygen deficiency. The vascular KATP channel (SUR2B/Kir6.2) plays an important part in this. Its opening leads to hyperpolarization of the cell membrane of the smooth muscle cell and consequently to a reduced calcium influx, resulting in a dilatation of the vessel. Blockade of the vascular KATP channel inhibits the widening of the vessel and thus adjustment of the coronary flow under hypoxic conditions. The test model used for determining the coronary flow was an isolated perfused Langendorff heart of a guinea pig.
Guinea pigs of both sexes were sacrificed by a blow to the head. The heart was quickly removed, and the aorta was canulated. After the canulation, the heart was suspended in the perfusion solution in the Langendorff apparatus, and a latex balloon was inserted into the left ventricle. The coronary flow was recorded using a flow transducer, type E, from Hellige (Freiburg, Germany). The heart was perfused with a constant pressure of 55 mm Hg. Hypoxia was induced by changing the aeration from 95% oxygen/5% carbon dioxide (=normoxia) to 20% oxygen/75% nitrogen/5% carbon dioxide. […]

## CNC(=S)NS(=O)(=O)N1CCC(CCNC(=O)c2cc(Cl)ccc2OC)CC1 [Example 1, 5-Chloro-2-methoxy-N-(2-(1-(3-methylthioureidosulfonyl)piperidin-4-yl)ethyl)benzamide]
[1]
  hSUR1/hKir6.2 blockade at 0.1 μM: <1%
  hSUR1/hKir6.2 blockade at 1 μM: 2%
  hSUR1/hKir6.2 blockade at 10 μM: 41%
[2]
  Remaining shortening of the APD90 under hypoxia in percent: 80%

## COc1ccc(Cl)cc1C(=O)NCCC1CCN(S(=O)(=O)NC(=O)NC2CC2)CC1 [Example 11, 5-Chloro-2-methoxy-N-(2-(1-(3-cyclopropylureidosulfonyl)piperidin-4-yl)ethyl)benzamide]
other
  melting point: 138 to 139 °C

## CCCNC(=O)NS(=O)(=O)N1CCC(CCNC(=O)c2cc(Cl)ccc2OC)CC1 [Example 9, 5-Chloro-2-methoxy-N-(2-(1-(3-propylureidosulfonyl)piperidin-4-yl)ethyl)benzamide]
other
  melting point: 140 to 142 °C

## COc1ccc(Cl)cc1C(=O)NCCC1CCN(S(=O)(=O)NC(=S)NC2CCCCC2)CC1 [Example 6, 5-Chloro-2-methoxy-N-(2-(1-(3-cyclohexylthioureidosulfonyl)piperidin-4-yl)ethyl)benzamide]
other
  melting point: 146 to 148 °C

## CNC(=O)NS(=O)(=O)N1CCC(CCNC(=O)c2cc(Cl)ccc2OC)CC1 [Example 7, 5-Chloro-2-methoxy-N-(2-(1-(3-methylureidosulfonyl)piperidin-4-yl)ethyl)benzamide]
[1]
  hSUR1/hKir6.2 blockade at 0.1 μM: <1%
  hSUR1/hKir6.2 blockade at 1 μM: 15%
  hSUR1/hKir6.2 blockade at 10 μM: 60%
[2]
  Remaining shortening of the APD90 under hypoxia in percent: 68%

## CCNC(=O)NS(=O)(=O)N1CCC(CCNC(=O)c2cc(Cl)ccc2OC)CC1 [Example 8, 5-Chloro-2-methoxy-N-(2-(1-(3-ethylureidosulfonyl)piperidin-4-yl)ethyl)benzamide]
[1]
  hSUR1/hKir6.2 blockade at 0.1 μM: 8%
  hSUR1/hKir6.2 blockade at 1 μM: 55%
  hSUR1/hKir6.2 blockade at 10 μM: 102%
[2]
  Remaining shortening of the APD90 under hypoxia in percent: 54%

## COc1ccc(Cl)cc1C(=O)NCCC1CCN(S(=O)(=O)NC(=S)NC(C)C)CC1 [Example 4, 5-Chloro-2-methoxy-N-(2-(1-(3-isopropylthioureidosulfonyl)piperidin-4-yl)ethyl)benzamide]
[1]
  hSUR1/hKir6.2 blockade at 0.1 μM: 2%
  hSUR1/hKir6.2 blockade at 1 μM: 53%
  hSUR1/hKir6.2 blockade at 10 μM: 89%
[2]
  Remaining shortening of the APD90 under hypoxia in percent: 54%
[3]
  Hypoxic coronary flow compared with the control in percent: 61%

## CCCNC(=S)NS(=O)(=O)N1CCC(CCNC(=O)c2cc(Cl)ccc2OC)CC1 [Example 3, 5-Chloro-2-methoxy-N-(2-(1-(3-propylthioureidosulfonyl)piperidin-4-yl)ethyl)benzamide]
[1]
  hSUR1/hKir6.2 blockade at 0.1 μM: 5%
  hSUR1/hKir6.2 blockade at 1 μM: 55%
  hSUR1/hKir6.2 blockade at 10 μM: 89%
[2]
  Remaining shortening of the APD90 under hypoxia in percent: 67%

## CCNC(=S)NS(=O)(=O)N1CCC(CCNC(=O)c2cc(Cl)ccc2OC)CC1 [Example 2, 5-Chloro-2-methoxy-N-(2-(1-(3-ethylthioureidosulfonyl)piperidin-4-yl)ethyl)benzamide]
[1]
  hSUR1/hKir6.2 blockade at 0.1 μM: <1%
  hSUR1/hKir6.2 blockade at 1 μM: 4%
  hSUR1/hKir6.2 blockade at 10 μM: 67%
[2]
  Remaining shortening of the APD90 under hypoxia in percent: 82%

## COc1ccc(Cl)cc1C(=O)NCCC1CCN(S(=O)(=O)NC(=S)NC2CC2)CC1 [Example 5, 5-Chloro-2-methoxy-N-(2-(1-(3-cyclopropylthioureidosulfonyl)piperidin-4-yl)ethyl)benzamide]
other
  melting point: 144 to 145 °C

## COc1ccc(Cl)cc1C(=O)NCCc1ccc(S(=O)(=O)NC(=O)NC2CCCCC2)cc1 [Comparison (1), glibenclamide, reference compound]
[3]
  Hypoxic coronary flow compared with the control in percent: 35%
